Test results published in ChEMBL document CHEMBL1201862, “PubChem BioAssay data set” (2004).
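Five concentrations, 48 hours, 96-well plates. Abbreviation: GI50, concentration required for 50% inhibition of growth.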 The source made the active and inactive calls. Rule as the data show it: active = GI50 up to about 1.1 µM and inactive = higher.

Assays:
Test in all cases: growth of human tumour cells (NCI), 48 h
786-0 = tested on: 786-0
A498 = tested on: A498
A549 = tested on: A549
ACHN = tested on: ACHN
CAKI-1 = tested on: CAKI-1
CCRF-CEM = tested on: CCRF-CEM
COLO 205 = tested on: COLO 205
DU-145 = tested on: DU-145
EKVX = tested on: EKVX
HCC 2998 = tested on: HCC 2998
HCT-116 = tested on: HCT-116
HCT-15 = tested on: HCT-15
HL-60 = tested on: HL-60
HOP-62 = tested on: HOP-62
HOP-92 = tested on: HOP-92
HT-29 = tested on: HT-29
Hs-578T = tested on: Hs-578T
IGROV-1 = tested on: IGROV-1
K562 = tested on: K562
KM12 = tested on: KM12
LOX IMVI = tested on: LOX IMVI
M14 = tested on: M14
MCF7 = tested on: MCF7
MDA-MB-231 = tested on: MDA-MB-231
MDA-MB-435 = tested on: MDA-MB-435
MDA-N = tested on: MDA-N
Malme-3M = tested on: Malme-3M
NCI-H226 = tested on: NCI-H226
NCI-H23 = tested on: NCI-H23
NCI-H460 = tested on: NCI-H460
NCI-H522 = tested on: NCI-H522
NCI/ADR-RES = tested on: NCI/ADR-RES
OVCAR-3 = tested on: OVCAR-3
OVCAR-4 = tested on: OVCAR-4
OVCAR-5 = tested on: OVCAR-5
OVCAR-8 = tested on: OVCAR-8
PC-3 = tested on: PC-3
RPMI-8226 = tested on: RPMI-8226
RXF 393 = tested on: RXF 393
SF-268 = tested on: SF-268
SF-295 = tested on: SF-295
SF-539 = tested on: SF-539
SK-MEL-28 = tested on: SK-MEL-28
SK-MEL-2 = tested on: SK-MEL-2
SK-MEL-5 = tested on: SK-MEL-5
SK-OV-3 = tested on: SK-OV-3
SN12C = tested on: SN12C
SNB-19 = tested on: SNB-19
SNB-75 = tested on: SNB-75
SR = tested on: SR
SW-620 = tested on: SW-620
T47D = tested on: T47D
TK-10 = tested on: TK-10
U-251 = tested on: U-251
UACC-257 = tested on: UACC-257
UACC-62 = tested on: UACC-62
UO-31 = tested on: UO-31
BT-549 = tested on: BT-549
MOLT-4 = tested on: MOLT-4

NC1NCCC(=O)N1CCc1c[nH]c2ccccc12 (stereo not given)
GI50 (786-0): 20 µM (inactive)
GI50 (A498): 12.7 µM (inactive)
GI50 (A549): 26.1 µM (inactive)
GI50 (ACHN): 24.6 µM (inactive)
GI50 (CAKI-1): 29.2 µM (inactive)
GI50 (CCRF-CEM): 23.6 µM (inactive)
GI50 (COLO 205): 18.3 µM (inactive)
GI50 (DU-145): 23.7 µM (inactive)
GI50 (EKVX): 28.1 µM (inactive)
GI50 (HCC 2998): 18.5 µM (inactive)
GI50 (HCT-116): 13.6 µM (inactive)
GI50 (HCT-15): 19.5 µM
GI50 (HL-60): 24.8 µM (inactive)
GI50 (HOP-62): 19.2 µM (inactive)
GI50 (HOP-92): 31.1 µM (inactive)
GI50 (HT-29): 27.2 µM (inactive)
GI50 (Hs-578T): 23.4 µM (inactive)
GI50 (IGROV-1): 25.4 µM (inactive)
GI50 (K562): 22.4 µM (inactive)
GI50 (KM12): 15.5 µM (inactive)
GI50 (LOX IMVI): 12.9 µM (inactive)
GI50 (M14): 19.2 µM (inactive)
GI50 (MCF7): 15.5 µM (inactive)
GI50 (MDA-MB-231): 13.2 µM (inactive)
GI50 (MDA-MB-435): 17 µM (inactive)
GI50 (MDA-N): 17.6 µM (inactive)
GI50 (Malme-3M): 19.9 µM (inactive)
GI50 (NCI-H226): 28.7 µM (inactive)
GI50 (NCI-H23): 18.7 µM (inactive)
GI50 (NCI-H460): 16.8 µM (inactive)
GI50 (NCI-H522): 87.5 µM (inactive)
GI50 (NCI/ADR-RES): 24.5 µM (inactive)
GI50 (OVCAR-3): 20.9 µM (inactive)
GI50 (OVCAR-4): 27.1 µM (inactive)
GI50 (OVCAR-5): 23.6 µM (inactive)
GI50 (OVCAR-8): 39.7 µM (inactive)
GI50 (PC-3): 19.3 µM (inactive)
GI50 (RPMI-8226): 37.2 µM (inactive)
GI50 (RXF 393): 22.8 µM (inactive)
GI50 (SF-268): 22.1 µM (inactive)
GI50 (SF-295): 24.5 µM (inactive)
GI50 (SF-539): 16.7 µM (inactive)
GI50 (SK-MEL-28): 19.3 µM (inactive)
GI50 (SK-MEL-2): 19.9 µM (inactive)
GI50 (SK-MEL-5): 16.9 µM (inactive)
GI50 (SK-OV-3): > 100 µM (inactive)
GI50 (SN12C): 27.2 µM (inactive)
GI50 (SNB-19): 33.7 µM (inactive)
GI50 (SNB-75): 6.98 µM (inactive)
GI50 (SR): 29 µM (inactive)
GI50 (SW-620): 21.3 µM (inactive)
GI50 (T47D): 37.2 µM (inactive)
GI50 (TK-10): 25.9 µM (inactive)
GI50 (U-251): 65.2 µM (inactive)
GI50 (UACC-257): 17.8 µM (inactive)
GI50 (UACC-62): 20.1 µM (inactive)
GI50 (UO-31): 41.6 µM (inactive)

CN(C)/C=N/c1c2ccccc2nc2ccccc12
GI50 (786-0): 5.14 µM (inactive)
GI50 (A498): 8 µM (inactive)
GI50 (A549): 4.61 µM (inactive)
GI50 (ACHN): 5.02 µM (inactive)
GI50 (BT-549): 3.06 µM (inactive)
GI50 (CAKI-1): 18 µM (inactive)
GI50 (CCRF-CEM): 4.21 µM (inactive)
GI50 (COLO 205): 2.48 µM (inactive)
GI50 (DU-145): 4.83 µM (inactive)
GI50 (EKVX): 9.46 µM (inactive)
GI50 (HCT-116): 3.57 µM (inactive)
GI50 (HCT-15): 8.13 µM
GI50 (HL-60): 3.65 µM (inactive)
GI50 (HOP-62): 8.22 µM (inactive)
GI50 (HOP-92): 5.4 µM (inactive)
GI50 (HT-29): 3.06 µM (inactive)
GI50 (Hs-578T): 2.01 µM (inactive)
GI50 (IGROV-1): 4.23 µM (inactive)
GI50 (K562): 4.47 µM (inactive)
GI50 (LOX IMVI): 2.44 µM (inactive)
GI50 (M14): 5.37 µM (inactive)
GI50 (MCF7): 2.54 µM (inactive)
GI50 (MDA-MB-231): 5.77 µM (inactive)
GI50 (MDA-MB-435): 4.21 µM (inactive)
GI50 (MOLT-4): 2.59 µM (inactive)
GI50 (Malme-3M): 3.23 µM (inactive)
GI50 (NCI-H226): 1.75 µM (inactive)
GI50 (NCI-H23): 3.31 µM (inactive)
GI50 (NCI-H522): 2.01 µM (inactive)
GI50 (NCI/ADR-RES): 10.6 µM (inactive)
GI50 (OVCAR-3): 3.05 µM (inactive)
GI50 (OVCAR-4): 6.64 µM (inactive)
GI50 (OVCAR-5): 6.52 µM (inactive)
GI50 (OVCAR-8): 3.92 µM (inactive)
GI50 (PC-3): 2.98 µM (inactive)
GI50 (RPMI-8226): 1.79 µM (inactive)
GI50 (RXF 393): 4.34 µM (inactive)
GI50 (SF-268): 3.35 µM (inactive)
GI50 (SF-295): 5.7 µM (inactive)
GI50 (SF-539): 2.78 µM (inactive)
GI50 (SK-MEL-28): 1.99 µM (inactive)
GI50 (SK-MEL-2): 2.69 µM (inactive)
GI50 (SK-MEL-5): 2.98 µM (inactive)
GI50 (SK-OV-3): 5.64 µM (inactive)
GI50 (SN12C): 2.53 µM (inactive)
GI50 (SNB-19): 4.25 µM (inactive)
GI50 (SNB-75): 3.74 µM (inactive)
GI50 (T47D): 2.65 µM (inactive)
GI50 (TK-10): 7.16 µM (inactive)
GI50 (U-251): 4.17 µM (inactive)
GI50 (UACC-257): 2.3 µM (inactive)
GI50 (UACC-62): 2.45 µM (inactive)
GI50 (UO-31): 5.86 µM (inactive)
